In ChEMBL document CHEMBL1921749, “5-Lipoxygenase-activating protein (FLAP) inhibitors. Part 4: development of 3-[3-tert-butylsulfanyl-1-[4-(6-ethoxypyridin-3-yl)benzyl]-5-(5-methylpyridin-2-ylmethoxy)-1H-indol-2-yl]-2,2-dimethylpropionic acid (AM803), a potent, oral, once daily FLAP inhibitor” (J Med Chem, 2011):

Key:
[1] = target: Cytochrome P450 2D6 (Homo sapiens, UniProt P10635); experiment: Inhibition of human CYP2D6; assay type: ADME
[2] = target: T1, Arachidonate 5-lipoxygenase-activating protein (Homo sapiens, UniProt P20292); experiment: Displacement of [3H]-3-[5-(pyrid-2-ylmethoxy)-3-tert-butylthio-1-benzylindol-2-yl]-2,2-dimethylpropionic acid from FLAP in human polymorphonuclear cell membranes after 1 hr by scintillation counting
T1 sequence (P20292 whole entry): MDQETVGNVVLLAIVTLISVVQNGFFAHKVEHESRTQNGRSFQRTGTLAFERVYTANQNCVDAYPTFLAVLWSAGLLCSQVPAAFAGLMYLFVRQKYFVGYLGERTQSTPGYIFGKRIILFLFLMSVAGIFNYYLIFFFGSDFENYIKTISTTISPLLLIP

[3] = target: Cytochrome P450 3A4 (Homo sapiens, UniProt P08684); experiment: Inhibition of human CYP3A4; assay type: ADME
[4] = target: T1, Arachidonate 5-lipoxygenase-activating protein; experiment: Inhibition of FLAP in human whole blood assessed as inhibition of calcium ionophore A23187-induced LTB4 production preincubated for 5 hrs by ELISA
[5] = target: Cytochrome P450 2C9 (Homo sapiens, UniProt P11712); experiment: Inhibition of human CYP2C9; assay type: ADME
[6] = target: T1, Arachidonate 5-lipoxygenase-activating protein; experiment: Inhibition of FLAP in human whole blood assessed as inhibition of calcium ionophore A23187-induced LTB4 production preincubated for 15 mins by ELISA
[7] = target: T1, Arachidonate 5-lipoxygenase-activating protein; experiment: Inhibition of FLAP in human peripheral leukocytes assessed as inhibition of calcium ionophore A23187-induced LTB4 production after 10 mins by ELISA; assay type: cell-based
[8] = target: T1, Arachidonate 5-lipoxygenase-activating protein; experiment: Inhibition of FLAP in human peripheral leukocytes assessed as inhibition of calcium ionophore A23187-induced LTB4 production after 1 hr by ELISA in absence of human serum albumin; assay type: cell-based
[9] = target: T1, Arachidonate 5-lipoxygenase-activating protein; experiment: Inhibition of FLAP in human peripheral leukocytes assessed as inhibition of calcium ionophore A23187-induced LTB4 production after 5 mins by ELISA in absence of human serum albumin; assay type: cell-based
[10] = target: T1, Arachidonate 5-lipoxygenase-activating protein; experiment: Inhibition of FLAP in human peripheral leukocytes assessed as inhibition of calcium ionophore A23187-induced LTB4 production after 3 hr by ELISA in presence of 0.5% human serum albumin; assay type: cell-based
[11] = target: T2, Arachidonate 5-lipoxygenase-activating protein (Rattus norvegicus, UniProt P20291); experiment: Inhibition of FLAP in rat whole blood assessed as inhibition of calcium ionophore A23187-induced LTB4 production preincubated for 15 mins by ELISA; assay type: tissue-based
T2 sequence (P20291 whole entry): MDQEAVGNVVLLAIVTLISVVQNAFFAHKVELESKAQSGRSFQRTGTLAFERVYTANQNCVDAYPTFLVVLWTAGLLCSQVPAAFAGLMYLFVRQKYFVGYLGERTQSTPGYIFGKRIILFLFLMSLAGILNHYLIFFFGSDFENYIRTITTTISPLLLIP

[12] = target: T1, Arachidonate 5-lipoxygenase-activating protein; experiment: Inhibition of FLAP in human whole blood assessed as inhibition of calcium ionophore A23187-induced LTB4 production preincubated for 11 hrs by ELISA
[13] = target: T1, Arachidonate 5-lipoxygenase-activating protein; experiment: Inhibition of FLAP in human peripheral leukocytes assessed as inhibition of calcium ionophore A23187-induced LTB4 production after 10 mins by ELISA in presence of 0.5% human serum albumin; assay type: cell-based
[14] = target: T2, Arachidonate 5-lipoxygenase-activating protein; experiment: Inhibition of FLAP in rat whole blood assessed as inhibition of calcium ionophore A23187-induced LTB4 production preincubated for 4 hrs by ELISA; assay type: tissue-based
[15] = Terminal half life in Sprague-Dawley rat at 2 mg/kg, iv; assay type: ADME, organism-based; set-up: dose 2 mg/kg, route intravenous; details: in vivo, read-out: beta t1/2 (converted)
[16] = Clearance in Sprague-Dawley rat at 2 mg/kg, iv; assay type: ADME, organism-based; set-up: dose 2 mg/kg, route intravenous; details: in vivo
[17] = Oral bioavailability in Sprague-Dawley rat at 10 mg/kg; assay type: ADME, organism-based; details: in vivo
[18] = Volume of distribution at steady state in Sprague-Dawley rat at 2 mg/kg, iv; assay type: ADME, organism-based; set-up: dose 2 mg/kg, route intravenous; details: in vivo, read-out: Vdss
[19] = AUC in Sprague-Dawley rat at 10 mg/kg, po; assay type: ADME, organism-based; set-up: dose 10 mg/kg, route oral; details: plasma
[20] = Cmax in Sprague-Dawley rat at 10 mg/kg, po; assay type: ADME, organism-based; set-up: dose 10 mg/kg, route oral; details: in vivo
[21] = target: T3, Arachidonate 5-lipoxygenase-activating protein (Homo sapiens) (UniProt P20292); experiment: Ratio of IC50 for FLAP in human whole blood assessed as inhibition of calcium ionophore A23187-induced LTB4 production preincubated for 15 mins to IC50 for FLAP in human whole blood assessed as inhibition of calcium ionophore A23187-induced LTB4 production preincubated for 5 hrs
T3 sequence (whole entry): T1 sequence (P20292 whole entry)

[22] = target: T4, Prostaglandin G/H synthase 1 (Homo sapiens, UniProt P23219); experiment: Inhibition of COX1-mediated TXB2 production in human whole blood after 15 mins by competitive enzyme immunoassay
[23] = target: T4, Prostaglandin G/H synthase 1; experiment: Inhibition of COX1-mediated TXB2 production in human whole blood after 5 hrs by competitive enzyme immunoassay
[24] = target: T4, Prostaglandin G/H synthase 1; experiment: Inhibition of COX1-mediated TXB2 production in human whole blood after 30 mins by competitive enzyme immunoassay

T4 sequence (P23219 whole entry): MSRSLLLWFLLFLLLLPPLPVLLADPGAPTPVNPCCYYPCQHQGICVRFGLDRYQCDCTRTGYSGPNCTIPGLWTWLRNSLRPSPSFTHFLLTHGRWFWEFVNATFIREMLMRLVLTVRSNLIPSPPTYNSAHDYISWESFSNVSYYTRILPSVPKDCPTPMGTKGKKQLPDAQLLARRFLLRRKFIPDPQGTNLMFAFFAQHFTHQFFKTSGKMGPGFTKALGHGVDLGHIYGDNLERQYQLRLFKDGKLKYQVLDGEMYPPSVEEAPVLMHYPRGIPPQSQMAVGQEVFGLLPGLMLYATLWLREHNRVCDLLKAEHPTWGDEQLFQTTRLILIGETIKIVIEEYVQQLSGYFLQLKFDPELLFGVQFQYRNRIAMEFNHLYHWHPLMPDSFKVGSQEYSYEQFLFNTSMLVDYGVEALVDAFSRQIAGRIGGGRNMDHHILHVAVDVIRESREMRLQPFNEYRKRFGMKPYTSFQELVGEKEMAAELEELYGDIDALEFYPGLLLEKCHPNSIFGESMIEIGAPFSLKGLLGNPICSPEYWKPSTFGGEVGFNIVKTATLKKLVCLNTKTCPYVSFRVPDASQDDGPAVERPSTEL
Cytochrome P450 3A4, sequence (P08684 whole entry): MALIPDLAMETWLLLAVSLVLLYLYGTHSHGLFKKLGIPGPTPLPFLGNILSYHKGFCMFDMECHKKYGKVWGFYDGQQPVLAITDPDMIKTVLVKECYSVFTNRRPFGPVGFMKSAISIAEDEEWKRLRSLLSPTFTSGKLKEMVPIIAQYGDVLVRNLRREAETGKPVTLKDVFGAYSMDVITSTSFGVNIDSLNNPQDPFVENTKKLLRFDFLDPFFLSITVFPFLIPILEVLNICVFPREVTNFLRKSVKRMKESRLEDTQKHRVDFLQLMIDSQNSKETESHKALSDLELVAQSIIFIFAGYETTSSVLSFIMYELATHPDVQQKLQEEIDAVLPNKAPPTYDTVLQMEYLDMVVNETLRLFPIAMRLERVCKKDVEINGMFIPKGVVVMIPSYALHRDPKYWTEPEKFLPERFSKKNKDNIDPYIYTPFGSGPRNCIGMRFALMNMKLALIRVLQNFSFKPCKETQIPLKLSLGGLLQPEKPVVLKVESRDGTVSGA
Cytochrome P450 2D6, sequence (P10635 whole entry): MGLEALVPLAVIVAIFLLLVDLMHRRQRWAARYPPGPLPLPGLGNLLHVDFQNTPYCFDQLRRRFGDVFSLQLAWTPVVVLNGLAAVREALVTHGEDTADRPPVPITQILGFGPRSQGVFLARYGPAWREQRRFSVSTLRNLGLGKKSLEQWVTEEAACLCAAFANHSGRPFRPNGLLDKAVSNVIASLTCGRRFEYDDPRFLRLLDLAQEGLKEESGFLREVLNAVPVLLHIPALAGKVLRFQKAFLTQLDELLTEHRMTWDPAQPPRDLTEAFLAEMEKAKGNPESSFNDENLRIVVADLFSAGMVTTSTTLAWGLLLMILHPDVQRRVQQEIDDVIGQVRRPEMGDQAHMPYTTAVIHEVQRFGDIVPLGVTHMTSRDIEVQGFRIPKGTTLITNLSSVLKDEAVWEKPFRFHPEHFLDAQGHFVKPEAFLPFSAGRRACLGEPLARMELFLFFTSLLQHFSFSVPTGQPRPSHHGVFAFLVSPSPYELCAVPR
Cytochrome P450 2C9, sequence (P11712 whole entry): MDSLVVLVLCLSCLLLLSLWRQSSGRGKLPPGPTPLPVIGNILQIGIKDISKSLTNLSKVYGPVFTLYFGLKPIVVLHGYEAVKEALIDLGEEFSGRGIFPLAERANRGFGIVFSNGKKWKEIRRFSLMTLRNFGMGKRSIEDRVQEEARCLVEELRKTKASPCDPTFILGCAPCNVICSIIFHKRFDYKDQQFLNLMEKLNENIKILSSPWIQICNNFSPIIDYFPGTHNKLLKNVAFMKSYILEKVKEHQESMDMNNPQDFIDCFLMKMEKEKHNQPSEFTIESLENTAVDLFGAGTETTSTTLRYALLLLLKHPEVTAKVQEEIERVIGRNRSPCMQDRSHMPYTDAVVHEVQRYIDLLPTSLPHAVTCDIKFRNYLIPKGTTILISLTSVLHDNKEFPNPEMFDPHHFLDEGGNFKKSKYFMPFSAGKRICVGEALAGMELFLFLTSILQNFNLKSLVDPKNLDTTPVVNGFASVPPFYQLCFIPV

Question: For `Cc1ccc(COc2ccc3c(c2)c(SC(C)(C)C)c(CC(C)(C)C(=O)O)n3Cc2ccc(-c3ccc(C)cn3)cc2)nc1`, which IC50 [1] is on record?
Answer: > 50000 nM

Question: What about the IC50 [2] of the same compound?
Answer: 2.2 nM

Question: What about the IC50 [3] of the same compound?
Answer: 8500 nM

Question: And the IC50 [4]?
Answer: 130 nM

Question: And the IC50 [5]?
Answer: 12000 nM

Question: What about the IC50 [6] of the same compound?
Answer: 283 nM

Question: What about the IC50 [7] of the same compound?
Answer: 0.5 nM

Question: What does the source list for `CC(C)(C)Sc1c(CC(C)(C)C(=O)O)n(Cc2ccc(Cl)cc2)c2ccc(OCc3ccc4ccccc4n3)cc12` [QUIFLAPON SODIUM]?
Answer: IC50 [8]: 1 nM; IC50 [9]: 1 nM; IC50 [10]: 12 nM; IC50 [11]: 117 nM; IC50 [2]: 1.9 nM; IC50 [12]: 80 nM; IC50 [4]: 108 nM; IC50 [13]: 66 nM; IC50 [6]: 536 nM; IC50 [14]: 10 nM; IC50 [7]: 0.5 nM

Question: For `Cc1ccc(COc2ccc3c(c2)c(SC(C)(C)C)c(CC(C)(C)C(=O)[O-])n3Cc2ccc(-c3ccc(F)cn3)cc2)nc1.[Na+]`, which half-life [15] is on record?
Answer: 1.9 h

Question: And the clearance [16]?
Answer: 4 mL/min/kg

Question: What about the bioavailability [17] of the same compound?
Answer: 100%

Question: And the Vd [18]?
Answer: 0.38 L/kg

Question: What about the AUC [19] of the same compound?
Answer: 77000 ng·h/mL

Question: And the Cmax [20]?
Answer: 23.3 µM

Question: Which half-life [15] does the source give for `CCOc1ccc(-c2ccc(Cn3c(CC(C)(C)C(=O)[O-])c(SC(C)(C)C)c4cc(OCc5ccc(C)cn5)ccc43)cc2)cn1.[Na+]` [FIBOFLAPON SODIUM] here?
Answer: 2 h

Question: What about the clearance [16] of the same compound?
Answer: 5.2 mL/min/kg

Question: And the bioavailability [17]?
Answer: 76%

Question: And the Vd [18]?
Answer: 0.7 L/kg

Question: And the AUC [19]?
Answer: 26000 ng·h/mL

Question: What about the Cmax [20] of the same compound?
Answer: 12.2 µM

Question: Which results are given for `COc1ccc(-c2ccc(Cn3c(CC(C)(C)C(=O)O)c(SC(C)(C)C)c4cc(OCc5ccc6cc(F)ccc6n5)ccc43)cc2)cn1`?
Answer: IC50 [2]: 7.6 nM; IC50 [4]: 289 nM; Ratio IC50 [21]: 2; IC50 [6]: 747 nM; IC50 [7]: 0.7 nM

Question: Which results are given for `COc1ccc(-c2ccc(Cn3c(CC(C)(C)C(=O)O)c(SC(C)(C)C)c4cc(OCc5ccc(C)cn5)ccc43)cc2)cn1`?
Answer: IC50 [2]: 1.7 nM; IC50 [22]: 12300 nM; IC50 [4]: 87 nM; IC50 [23]: 17300 nM; IC50 [6]: 328 nM; IC50 [7]: 0.5 nM

Question: With `CC(C)c1ccc2c(c1)c(SC(C)(C)C)c(CC(C)(C)C(=O)O)n2Cc1ccc(Cl)cc1` as the compound, how does the IC50 [8] read?
Answer: 5.7 nM

Question: What about the IC50 [9] of the same compound?
Answer: 2.2 nM

Question: What about the IC50 [10] of the same compound?
Answer: 27 nM

Question: And the IC50 [12]?
Answer: 1000 nM

Question: What about the IC50 [4] of the same compound?
Answer: 1100 nM

Question: What about the IC50 [13] of the same compound?
Answer: 19 nM

Question: And the IC50 [6]?
Answer: 1400 nM

Question: With `COc1cnc(-c2ccc(Cn3c(CC(C)(C)C(=O)O)c(SC(C)(C)C)c4cc(OCc5ccc(C)cn5)ccc43)cc2)nc1` as the compound, how does the IC50 [1] read?
Answer: > 50000 nM

Question: What about the IC50 [24] of the same compound?
Answer: 25000 nM

Question: What about the IC50 [3] of the same compound?
Answer: 8800 nM

Question: What about the IC50 [4] of the same compound?
Answer: 81 nM

Question: And the IC50 [5]?
Answer: 4500 nM

Question: And the IC50 [6]?
Answer: 161 nM

Question: What about the IC50 [7] of the same compound?
Answer: 0.6 nM

Question: With `Cc1ccc(COc2ccc3c(c2)c(SC(C)(C)C)c(CC(C)(C)C(=O)O)n3Cc2ccc(-c3ccc(=O)[nH]c3)cc2)nc1` as the compound, how does the IC50 [2] read?
Answer: 8.3 nM

Question: And the IC50 [4]?
Answer: 1280 nM

Question: And the Ratio IC50 [21]?
Answer: 8

Question: What about the IC50 [6] of the same compound?
Answer: 10000 nM

Question: And the IC50 [7]?
Answer: 94 nM
